Measured values as given in patent US20240101540A1, “TARGETED PROTEIN DEGRADATION OF PARP14 FOR USE IN THERAPY” (Ribon Therapeutics, Inc., priority 2022, published 2024).

Target: T1, catalytic domain of human PARP14 (residues 1611 to 1801) with NanoLuc tag (Homo sapiens, UniProt Q460N5)
T1 construct: expressed in transfected cells; host or cells: HEK-293T cells (ATCC), pcDNA3.1(-) vector
T1 sequence (Q460N5 1611-1801): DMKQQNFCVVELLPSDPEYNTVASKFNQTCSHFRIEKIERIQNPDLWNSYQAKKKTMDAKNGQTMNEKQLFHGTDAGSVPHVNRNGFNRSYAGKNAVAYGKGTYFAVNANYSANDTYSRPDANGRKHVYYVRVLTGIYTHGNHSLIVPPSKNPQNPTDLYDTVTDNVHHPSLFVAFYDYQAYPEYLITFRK
Test: NanoLuc assay for the degradation of PARP14 (NanoLuc-tagged PARP14 overexpressed in HEK-293T cells, 2 hours)
Assay type: cell-based
Conditions: Assay A (Example A): NanoLuc-tagged PARP14 degradation in HEK-293T cells, read-out: DC50
Description: The insert also contained a NanoLuc tag on the N terminus of the PARP14 protein.
Degradation of PARP14 protein was assessed using measurement of the NanoLuc tag as proxy for the PARP14 protein. […] Plasmid DNA was diluted in empty vector DNA then added to 1.163 mL of phenol red free OptiMEM (Thermo Fisher). Plasmid DNA concentrations used in each assay described in Table 1. The plasmid DNA was mixed with 78.5 μL of Fugene HD (Promega) and allowed to incubate 5 minutes.
The transfection was incubated for 24 hrs at 37 degrees in an incubator supplemented with 5% CO2. The cells were then trypsinized and brought up in phenol red free OptiMEM media. […] 40 nL of a dose response curve diluted in DMSO of each test compound was added to the cell plate using a Mosquito (TTP Labtech) and the plate was incubated at 37° C. for 2 hours. Assay plate was brought to room temperature then 20 μL per well of NanoGlo (Promega) was added to the plate. Luminescence was measured on an Envision (Perkin Elmer).
The average DMSO was calculated from 32 wells containing 0.1% DMSO only in columns 12 and 24 of the assay plate. The % of DMSO values were calculated as described below: […]
The % of DMSO values were plotted as a function of compound concentration and the following 4-parameter fit was applied to derive the DC50 values:
where top, bottom, and Hill Coefficient are allowed to float. Y is the % of DMSO and X is the compound concentration
DC50 data for the Example compounds is provided below in Table 2 (“+” is <0.1 μM; “++” is ≥0.1 μM and <1 μM; and “+++” is ≥1 μM).

DC50	Compound
< 100 nM	O=C1CCC(N2C(=O)c3cccc(N4CCC(CN5CCC(C(=O)N6CCC(COc7cc(F)c8c(=O)[nH]c(CSC9CCOCC9)nc8c7)CC6)CC5)CC4)c3C2=O)C(=O)N1 (stereo not drawn) [Example 20, 2-(2,6-dioxopiperidin-3-yl)-4-(4-((4-(4-(((5-fluoro-4-oxo-2-(((tetrahydro-2H-pyran-4-yl)thio)methyl)-3,4-dihydroquinazolin-7-yl)oxy)methyl)piperidine-1-carbonyl)piperidin-1-yl)methyl)piperidin-1-yl)isoindoline-1,3-dione]
< 100 nM	O=C1CCC(N2C(=O)c3cccc(N4CCN(CC5CCN(C(=O)CN6CCC(COc7cc(F)c8c(=O)[nH]c(CSC9CCOCC9)nc8c7)CC6)CC5)CC4)c3C2=O)C(=O)N1 (stereo not drawn) [Example 21, 2-(2,6-dioxopiperidin-3-yl)-4-(4-((1-(2-(4-(((5-fluoro-4-oxo-2-(((tetrahydro-2H-pyran-4-yl)thio)methyl)-3,4-dihydroquinazolin-7-yl)oxy)methyl)piperidin-1-yl)acetyl)piperidin-4-yl)methyl)piperazin-1-yl)isoindoline-1,3-dione]
< 100 nM	O=C1CCC(N2C(=O)c3cccc(NCCOCC(=O)N4CCC(COc5cc(F)c6c(=O)[nH]c(CSC7CCOCC7)nc6c5)CC4)c3C2=O)C(=O)N1 (stereo not drawn) [Example 22, 2-(2,6-dioxopiperidin-3-yl)-4-((2-(2-(4-(((5-fluoro-4-oxo-2-(((tetrahydro-2H-pyran-4-yl)thio)methyl)-3,4-dihydroquinazolin-7-yl)oxy)methyl)piperidin-1-yl)-2-oxoethoxy)ethyl)amino)isoindoline-1,3-dione]
< 100 nM	O=C1CCC(N2C(=O)c3ccc(NC(=O)CN4CCC(COc5cc(F)c6c(=O)[nH]c(CSC7CCOCC7)nc6c5)CC4)cc3C2=O)C(=O)N1 (stereo not drawn) [Example 25, N-(2-(2,6-dioxopiperidin-3-yl)-1,3-dioxoisoindolin-5-yl)-2-(4-(((5-fluoro-4-oxo-2-(((tetrahydro-2H-pyran-4-yl)thio)methyl)-3,4-dihydroquinazolin-7-yl)oxy)methyl)piperidin-1-yl)acetamide]
< 100 nM	O=C1CCC(N2C(=O)c3cccc(NC(=O)CN4CCC(COc5cc(F)c6c(=O)[nH]c(CSC7CCOCC7)nc6c5)CC4)c3C2=O)C(=O)N1 (stereo not drawn) [Example 26, N-(2-(2,6-dioxopiperidin-3-yl)-1,3-dioxoisoindolin-4-yl)-2-(4-(((5-fluoro-4-oxo-2-(((tetrahydro-2H-pyran-4-yl)thio)methyl)-3,4-dihydroquinazolin-7-yl)oxy)methyl)piperidin-1-yl)acetamide]
< 100 nM	O=C1CCC(N2C(=O)c3cccc(C#CCN4CCC(COc5cc(F)c6c(=O)[nH]c(CSC7CCOCC7)nc6c5)CC4)c3C2=O)C(=O)N1 (stereo not drawn) [Example 28, 2-(2,6-dioxopiperidin-3-yl)-4-(3-(4-(((5-fluoro-4-oxo-2-(((tetrahydro-2H-pyran-4-yl)thio)methyl)-3,4-dihydroquinazolin-7-yl)oxy)methyl)piperidin-1-yl)prop-1-yn-1-yl)isoindoline-1,3-dione]
< 100 nM	O=C1CCC(N2Cc3cc(C#CCN4CCC(COc5cc(F)c6c(=O)[nH]c(CSC7CCOCC7)nc6c5)CC4)ccc3C2=O)C(=O)N1 (stereo not drawn) [Example 29, 3-(5-(3-(4-(((5-fluoro-4-oxo-2-(((tetrahydro-2H-pyran-4-yl)thio)methyl)-3,4-dihydroquinazolin-7-yl)oxy)methyl)piperidin-1-yl)prop-1-yn-1-yl)-1-oxoisoindolin-2-yl)piperidine-2,6-dione]
< 100 nM	Cn1c(=O)n(C2CCC(=O)NC2=O)c2cccc(C#CCN3CCC(COc4cc(F)c5c(=O)[nH]c(CSC6CCOCC6)nc5c4)CC3)c21 (stereo not drawn) [Example 31, 3-(4-(3-(4-(((5-fluoro-4-oxo-2-(((tetrahydro-2H-pyran-4-yl)thio)methyl)-3,4-dihydroquinazolin-7-yl)oxy)methyl)piperidin-1-yl)prop-1-yn-1-yl)-3-methyl-2-oxo-2,3-dihydro-1H-benzo[d]imidazol-1-yl)piperidine-2,6-dione]
< 100 nM	O=C1CCC(N2C(=O)c3ccc(N4CC(CN5CCC(COc6cc(F)c7c(=O)[nH]c(CSC8CCOCC8)nc7c6)CC5)C4)cc3C2=O)C(=O)N1 (stereo not drawn) [Example 36, 2-(2,6-dioxopiperidin-3-yl)-5-(3-((4-(((5-fluoro-4-oxo-2-(((tetrahydro-2H-pyran-4-yl)thio)methyl)-3,4-dihydroquinazolin-7-yl)oxy)methyl)piperidin-1-yl)methyl)azetidin-1-yl)isoindoline-1,3-dione]

More lines, now with the values behind:

Compound	DC50
O=C1CCC(N2C(=O)c3ccc(N4CCC(COc5cc(F)c6c(=O)[nH]c(CSC7CCOCC7)nc6c5)CC4)cc3C2=O)C(=O)N1 (stereo not drawn) [Example 23, 2-(2,6-dioxopiperidin-3-yl)-5-(4-(((5-fluoro-4-oxo-2-(((tetrahydro-2H-pyran-4-yl)thio)methyl)-3,4-dihydroquinazolin-7-yl)oxy)methyl)piperidin-1-yl)isoindoline-1,3-dione]	< 100 nM
O=C1CCC(N2C(=O)c3cccc(N4CCC(COc5cc(F)c6c(=O)[nH]c(CSC7CCOCC7)nc6c5)CC4)c3C2=O)C(=O)N1 (stereo not drawn) [Example 24, 2-(2,6-dioxopiperidin-3-yl)-4-(4-(((5-fluoro-4-oxo-2-(((tetrahydro-2H-pyran-4-yl)thio)methyl)-3,4-dihydroquinazolin-7-yl)oxy)methyl)piperidin-1-yl)isoindoline-1,3-dione]	< 100 nM
O=C1CCC(N2C(=O)c3ccc(C#CCN4CCC(COc5cc(F)c6c(=O)[nH]c(CSC7CCOCC7)nc6c5)CC4)cc3C2=O)C(=O)N1 (stereo not drawn) [Example 27, 2-(2,6-dioxopiperidin-3-yl)-5-(3-(4-(((5-fluoro-4-oxo-2-(((tetrahydro-2H-pyran-4-yl)thio)methyl)-3,4-dihydroquinazolin-7-yl)oxy)methyl)piperidin-1-yl)prop-1-yn-1-yl)isoindoline-1,3-dione]	< 100 nM
O=C1CCC(N2Cc3c(C#CCN4CCC(COc5cc(F)c6c(=O)[nH]c(CSC7CCOCC7)nc6c5)CC4)cccc3C2=O)C(=O)N1 (stereo not drawn) [Example 30, 3-(4-(3-(4-(((5-fluoro-4-oxo-2-(((tetrahydro-2H-pyran-4-yl)thio)methyl)-3,4-dihydroquinazolin-7-yl)oxy)methyl)piperidin-1-yl)prop-1-yn-1-yl)-1-oxoisoindolin-2-yl)piperidine-2,6-dione]	< 100 nM
O=C1CCN(c2ccc(C#CCN3CCC(COc4cc(F)c5c(=O)[nH]c(CSC6CCOCC6)nc5c4)CC3)cc2)C(=O)N1 [Example 32, 1-(4-(3-(4-(((5-fluoro-4-oxo-2-(((tetrahydro-2H-pyran-4-yl)thio)methyl)-3,4-dihydroquinazolin-7-yl)oxy)methyl)piperidin-1-yl)prop-1-yn-1-yl)phenyl)dihydropyrimidine-2,4(1H,3H)-dione]	< 100 nM
O=C1CCN(c2cccc(C#CCN3CCC(COc4cc(F)c5c(=O)[nH]c(CSC6CCOCC6)nc5c4)CC3)c2)C(=O)N1 [Example 33, 1-(3-(3-(4-(((5-fluoro-4-oxo-2-(((tetrahydro-2H-pyran-4-yl)thio)methyl)-3,4-dihydroquinazolin-7-yl)oxy)methyl)piperidin-1-yl)prop-1-yn-1-yl)phenyl)dihydropyrimidine-2,4(1H,3H)-dione]	< 100 nM
O=C1CCC(N2C(=O)c3ccc(N4CCC(CN5CCC(COc6cc(F)c7c(=O)[nH]c(CSC8CCOCC8)nc7c6)CC5)CC4)cc3C2=O)C(=O)N1 (stereo not drawn) [Example 34, 2-(2,6-dioxopiperidin-3-yl)-5-(4-((4-(((5-fluoro-4-oxo-2-(((tetrahydro-2H-pyran-4-yl)thio)methyl)-3,4-dihydroquinazolin-7-yl)oxy)methyl)piperidin-1-yl)methyl)piperidin-1-yl)isoindoline-1,3-dione]	< 100 nM
O=C1CCC(N2C(=O)c3cccc(N4CCC(CN5CCC(COc6cc(F)c7c(=O)[nH]c(CSC8CCOCC8)nc7c6)CC5)CC4)c3C2=O)C(=O)N1 (stereo not drawn) [Example 35, 2-(2,6-dioxopiperidin-3-yl)-4-(4-((4-(((5-fluoro-4-oxo-2-(((tetrahydro-2H-pyran-4-yl)thio)methyl)-3,4-dihydroquinazolin-7-yl)oxy)methyl)piperidin-1-yl)methyl)piperidin-1-yl)isoindoline-1,3-dione]	< 100 nM
O=C1CCC(N2C(=O)c3cccc(N4CC(CN5CCC(COc6cc(F)c7c(=O)[nH]c(CSC8CCOCC8)nc7c6)CC5)C4)c3C2=O)C(=O)N1 (stereo not drawn) [Example 37, 2-(2,6-dioxopiperidin-3-yl)-4-(3-((4-(((5-fluoro-4-oxo-2-(((tetrahydro-2H-pyran-4-yl)thio)methyl)-3,4-dihydroquinazolin-7-yl)oxy)methyl)piperidin-1-yl)methyl)azetidin-1-yl)isoindoline-1,3-dione]	< 100 nM
